The target in data set [1] is Epidermal growth factor receptor (Homo sapiens) (UniProt P00533). The data set can be described thus: Inhibition of EGF binding to EGFR in human A431 cells. Type of data set: cell-based. Particulars: A-431.
A further data set has as its system Bacillus subtilis. The data set can be described thus: Antibacterial activity against Bacillus subtilis. Type of data set: functional.
Data set [2] has as its system Mycolicibacterium smegmatis. The data set can be described thus: Antibacterial activity against Mycobacterium smegmatis. In kind it is functional.
Another data set relates to Micrococcus luteus. The experiment in a line: Antibacterial activity against Micrococcus luteus. In kind it is functional.
In a further data set the test system is Bacillus cereus. The data set can be described thus: Antibacterial activity against Bacillus cereus. In kind it is functional.
Another data set deals with A-431. The experiment in a line: Inhibition of phosphatidylinositol turnover in EGF-stimulated human A431 cells by liquid scintillation counting. Type of data set: functional, cell-based.
The subject of the next data set is Zone of skin. The experiment in a line: Toxicity in human skin assessed as erythema. In kind it is tissue-based.
Another data set deals with Staphylococcus aureus. The data set can be described thus: Antibacterial activity against Staphylococcus aureus. In kind it is functional.
The subject of a further data set is Corynebacterium bovis. The data set can be described thus: Antibacterial activity against Corynebacterium bovis. In kind it is functional.
In a further data set the test system is Bacillus anthracis. The data set can be described thus: Antibacterial activity against Bacillus anthracis. In kind it is functional.
The next data set has as its system Klebsiella pneumoniae. The data set can be described thus: Antibacterial activity against Klebsiella pneumoniae. Type of data set: functional.

Results on two compounds are retold here after ChEMBL document CHEMBL1151123, “Isolation of a New Indole Alkaloid, Pendolmycin, from Nocardiopsis” (J Nat Prod, 1988).

The term MIC denotes the lowest concentration found to suppress growth. A higher MIC goes with a less susceptible organism. What is called IC50 is the midpoint of a concentration-inhibition curve. The low end stands for higher potency, the high end for lower potency.

Structures are written as SMILES. Converted amounts (≈) assume the structure as drawn. The source made the active and inactive calls. The calls are words filed in the database; no cut-off is given here.

Sequence of Epidermal growth factor receptor (Homo sapiens) (P00533 whole entry): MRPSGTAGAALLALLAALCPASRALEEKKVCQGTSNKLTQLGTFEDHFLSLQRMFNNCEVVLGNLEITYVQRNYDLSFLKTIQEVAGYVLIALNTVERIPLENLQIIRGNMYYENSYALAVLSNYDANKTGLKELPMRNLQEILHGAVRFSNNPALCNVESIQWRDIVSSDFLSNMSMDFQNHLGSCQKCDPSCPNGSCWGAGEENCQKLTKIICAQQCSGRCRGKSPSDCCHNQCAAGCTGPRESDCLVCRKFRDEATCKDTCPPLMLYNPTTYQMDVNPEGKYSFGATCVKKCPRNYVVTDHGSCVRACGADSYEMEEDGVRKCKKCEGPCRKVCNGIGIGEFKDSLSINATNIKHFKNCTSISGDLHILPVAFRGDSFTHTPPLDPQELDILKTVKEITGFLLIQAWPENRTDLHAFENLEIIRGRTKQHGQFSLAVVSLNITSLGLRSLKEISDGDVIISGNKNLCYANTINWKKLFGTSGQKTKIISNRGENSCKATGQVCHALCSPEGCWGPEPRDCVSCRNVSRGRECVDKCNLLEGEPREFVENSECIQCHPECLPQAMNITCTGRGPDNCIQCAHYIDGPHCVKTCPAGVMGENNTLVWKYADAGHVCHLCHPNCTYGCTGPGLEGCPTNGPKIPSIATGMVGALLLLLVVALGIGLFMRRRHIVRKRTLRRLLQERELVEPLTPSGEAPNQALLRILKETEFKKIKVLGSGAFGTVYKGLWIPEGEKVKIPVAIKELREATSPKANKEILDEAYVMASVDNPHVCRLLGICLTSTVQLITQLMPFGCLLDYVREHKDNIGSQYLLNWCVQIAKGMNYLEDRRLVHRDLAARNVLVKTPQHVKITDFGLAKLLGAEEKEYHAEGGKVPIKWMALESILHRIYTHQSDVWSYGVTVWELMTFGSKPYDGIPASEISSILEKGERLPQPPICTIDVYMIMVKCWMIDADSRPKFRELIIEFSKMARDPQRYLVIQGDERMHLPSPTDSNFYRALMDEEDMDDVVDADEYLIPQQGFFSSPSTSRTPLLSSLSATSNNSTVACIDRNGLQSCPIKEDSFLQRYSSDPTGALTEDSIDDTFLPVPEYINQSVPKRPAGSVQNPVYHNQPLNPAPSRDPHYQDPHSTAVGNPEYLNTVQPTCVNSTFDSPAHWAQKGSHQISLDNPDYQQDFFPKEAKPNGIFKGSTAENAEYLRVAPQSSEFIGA

In the case of `C=C[C@]1(C)CC[C@@](C)(C(C)C)c2cc3c4c(c[nH]c4c21)C[C@@H](CO)NC(=O)[C@H](C(C)C)N3C`, the result in data set [1] was inactive.

For the compound `C=CC(C)(C)c1ccc2c3c(c[nH]c13)C[C@@H](CO)NC(=O)[C@H](C(C)C)N2C` [PENDOLMYCIN], the minimal inhibitory concentration (MIC) against Bacillus subtilis came to 50 µg/mL (≈ 135 µM); in [2], 50 µg/mL (≈ 135 µM); against Micrococcus luteus, 25 µg/mL (≈ 67.7 µM); against Bacillus cereus it was 50 µg/mL (≈ 135 µM); against Staphylococcus aureus it was 25 µg/mL (≈ 67.7 µM); with Corynebacterium bovis, 50 µg/mL (≈ 135 µM). The results for the minimum inhibitory concentration (MIC) against Bacillus anthracis and in the data set on Klebsiella pneumoniae were 50 µg/mL (≈ 135 µM) and 100 µg/mL (≈ 271 µM), respectively. For the same compound, in [1], the result was inactive. This compound also had an IC50 in the data set on A-431 of 0.001 µg/mL (≈ 0.00271 µM). In addition, in the data set on Zone of skin, the Activity entry is “Toxic”.
